The target in experiment [1] is T1, recombinant integrin α4β1 (Homo sapiens, UniProt P05556+P13612).
T1 construct: purchased R&D Systems 5397-A3-050
As to the kind of experiment: Integrin α4β1—VCAM-1 competition ELISA. It is filed as binding. The settings on record: read-out: ELISA α4β1 Assay IC50. A digest of the protocol: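 Detection of bound ligand used HRP-conjugated anti-human IgG Fc, 1 h with agitation at room temperature. This followed a 2 h room-temperature, 300 rpm equilibration of compound in the coated wells. Washes were done in 50 mM Tris, 100 mM NaCl, 1 mM MnCl2, 0.05% Tween.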
On the technique in general: An ELISA detects its analyte on a solid surface through an enzyme-linked reagent.

Experiment [2] deals with T2, integrin α4β7 (RPMI8866 human cells adhering to MAdCAM-1) (Homo sapiens, UniProt P13612+P26010).
T2 construct: RMP18866 cells, which express integrin α4β7; host or cells: RPMI8866
T2 sequence (P13612 34-1032): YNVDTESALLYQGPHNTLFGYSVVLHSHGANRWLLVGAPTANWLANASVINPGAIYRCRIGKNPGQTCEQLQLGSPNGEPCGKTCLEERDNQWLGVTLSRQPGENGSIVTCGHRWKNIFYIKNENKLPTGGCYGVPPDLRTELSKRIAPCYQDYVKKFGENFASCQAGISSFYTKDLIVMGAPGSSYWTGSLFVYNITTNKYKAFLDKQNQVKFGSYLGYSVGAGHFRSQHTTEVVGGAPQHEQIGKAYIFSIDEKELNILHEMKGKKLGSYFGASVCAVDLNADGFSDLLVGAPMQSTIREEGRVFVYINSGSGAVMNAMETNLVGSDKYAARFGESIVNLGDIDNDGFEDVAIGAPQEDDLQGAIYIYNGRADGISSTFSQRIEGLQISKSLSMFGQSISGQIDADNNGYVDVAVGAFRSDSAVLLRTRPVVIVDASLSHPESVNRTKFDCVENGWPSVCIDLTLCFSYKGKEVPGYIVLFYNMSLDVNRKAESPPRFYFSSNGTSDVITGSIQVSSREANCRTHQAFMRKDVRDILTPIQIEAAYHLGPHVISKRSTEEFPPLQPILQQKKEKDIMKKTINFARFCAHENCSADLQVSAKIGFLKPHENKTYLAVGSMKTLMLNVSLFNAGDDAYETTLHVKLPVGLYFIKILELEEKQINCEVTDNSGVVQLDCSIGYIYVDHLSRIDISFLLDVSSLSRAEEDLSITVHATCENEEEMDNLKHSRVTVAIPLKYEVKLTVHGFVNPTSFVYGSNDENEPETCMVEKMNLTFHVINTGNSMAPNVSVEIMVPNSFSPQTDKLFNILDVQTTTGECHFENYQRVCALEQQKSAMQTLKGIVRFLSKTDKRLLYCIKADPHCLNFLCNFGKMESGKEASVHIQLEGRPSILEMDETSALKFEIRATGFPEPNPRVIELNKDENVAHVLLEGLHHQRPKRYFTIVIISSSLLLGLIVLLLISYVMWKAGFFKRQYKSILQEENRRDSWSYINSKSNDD
T2 sequence (P26010 20-798): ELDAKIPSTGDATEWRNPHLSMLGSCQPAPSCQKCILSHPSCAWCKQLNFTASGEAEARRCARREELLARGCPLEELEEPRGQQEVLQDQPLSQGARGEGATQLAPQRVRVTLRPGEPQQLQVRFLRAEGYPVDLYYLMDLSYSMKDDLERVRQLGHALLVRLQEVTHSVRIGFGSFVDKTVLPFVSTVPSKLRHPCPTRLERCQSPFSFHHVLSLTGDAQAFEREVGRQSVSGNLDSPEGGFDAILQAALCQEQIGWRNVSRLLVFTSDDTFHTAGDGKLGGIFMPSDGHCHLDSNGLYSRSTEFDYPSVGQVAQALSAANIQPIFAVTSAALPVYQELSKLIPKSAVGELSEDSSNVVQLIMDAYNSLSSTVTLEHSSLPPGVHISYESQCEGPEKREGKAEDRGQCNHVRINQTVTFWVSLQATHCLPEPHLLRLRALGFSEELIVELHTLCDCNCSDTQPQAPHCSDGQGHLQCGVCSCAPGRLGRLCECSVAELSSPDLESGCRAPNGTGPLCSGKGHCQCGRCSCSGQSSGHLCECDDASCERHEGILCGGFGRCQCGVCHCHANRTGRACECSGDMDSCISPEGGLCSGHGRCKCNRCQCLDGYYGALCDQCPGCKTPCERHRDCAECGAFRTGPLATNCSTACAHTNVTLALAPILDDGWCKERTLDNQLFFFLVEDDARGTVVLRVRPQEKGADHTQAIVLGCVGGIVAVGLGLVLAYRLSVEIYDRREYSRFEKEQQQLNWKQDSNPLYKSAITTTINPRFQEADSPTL
The experiment can be described thus: Integrin α4β7-MAdCAM cell adhesion assay (RPMI8866 cells). It counts as cell-based. The settings on record: RPMI8866 cells adhering to MAdCAM; read-out: RPMI8866 Adhesion α4β7/MAdCAM IC50. The method, boiled down:
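Adhesion was read by calcein fluorescence. RPMI8866 cells were labelled at 10 million cells/ml with […] calcein (37° C., 30 min) and washed twice in PBS before reading. Dose-response values were corrected by subtracting cell-free control well fluorescence.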

For experiment [3], the target named is T3, integrin α4β7 on α4β7+ memory T helper cells (Homo sapiens, UniProt P13612+P26010).
T3 construct: endogenous in cells
T3 sequence (P13612 34-1032): T2 sequence (P13612 34-1032)
T3 sequence (P26010 20-798): T2 sequence (P26010 20-798)
The experiment can be described thus: MAdCAM-1 competition / receptor occupancy assay in human whole blood, α4β7-positive Th memory cells. It is filed as cell-based. The settings on record: human whole blood, inhibition of MAdCAM-1 binding to α4β7-positive Th memory cells, FACS; read-out: MADCAM FACS α4β7 Th mem. How it is done: Analyte Competition Assay in CD4+ Integrin α4+β7-Lo Memory T Cells
Receptor occupancy in primary cells was determined by measuring the amount of biotinylated human recombinant MAdCAM-1-FC or human recombinant VCAM-1-Fc bound to selected cell populations using flow cytometry. Human recombinant MAdCAM-1-FC or human recombinant VCAM-1-FC (R&D systems) were biotinylated using commercially available reagents and protocol (Pierce).
Whole blood was collected from human donors in sodium heparin tubes. […] Cells were washed twice with 1 mL of 1X DPBS calcium magnesium free (CMF) (ThermoFisher Scientific) and resuspended in 100 microL of DPBS CMF.
Biotinylated human recombinant MAdCAM-1-Fc or VCAM-1-Fc were added at saturating concentration and incubated at room temperature for 1 hour. […] Cells were washed with 1 mL stain buffer-FBS (BD Biosciences) and resuspended in 100 μl stain Buffer-FBS (BD Biosciences) containing 4 mM MnCl2. […] Cells were then washed with 1 mL stain buffer-FBS and resuspended in […] stain buffer-FBS. The cells were incubated in the dark for 30 minutes at room temperature with 1 ul Streptavidin APC (Biolegend 0.2 mg/ml) and a panel of antibodies for the detection of memory T helper a4b7-positive cells subset. And amount of 5.0 ul each of the following antibodies were used; CD45 FITC (BioLegend 200 ug/ml), CD29 APC Cy7 (BioLegend 100 ug/ml), Integrin beta7 PE, (BioLegend concentration 50 μg/mL), CD49d V421 (BioLegend 50 μg/mL), CD3 V510 (BioLegend 30 μg/mL), CD4 PECy7 (BioLegend 100 μg/mL), CD45RO PerCP, BioLegend 200 μg/mL). The cells were then washed with stain-buffer-FBS and resuspended in 150 microL stain buffer-FBS for acquisition on the flow cytometer (BD FACSCanto™ flow cytometer and BDFACSDiva™ software). FACS data was acquire by electronic gating on the basis of forward versus side scatter, The cytometer was set to collect 20,000 events in each tube. Cell population were determined using the following markers, CD45+, CD3+, CD4+, CD45RO+, CD49d+, integrin b7, biotinylated ligands.
Compound receptor occupancy was defined as the decrease in the number of integrin β7+ or integrin β7-lo cells binding biotinylated rhMAdCAM-1 or rhVCAM-1, respectively.
Receptor occupancy was calculated with the following equation: 100−((% ligand-positive cells with compound/% ligand-positive cells DMSO)*100) In Vivo T Lymphocyte Trafficking Analysis in Mouse Model of Colitis

SMILES strings stand for the structures.

T1 sequence (P05556 21-728 limits assumed, one chain of several): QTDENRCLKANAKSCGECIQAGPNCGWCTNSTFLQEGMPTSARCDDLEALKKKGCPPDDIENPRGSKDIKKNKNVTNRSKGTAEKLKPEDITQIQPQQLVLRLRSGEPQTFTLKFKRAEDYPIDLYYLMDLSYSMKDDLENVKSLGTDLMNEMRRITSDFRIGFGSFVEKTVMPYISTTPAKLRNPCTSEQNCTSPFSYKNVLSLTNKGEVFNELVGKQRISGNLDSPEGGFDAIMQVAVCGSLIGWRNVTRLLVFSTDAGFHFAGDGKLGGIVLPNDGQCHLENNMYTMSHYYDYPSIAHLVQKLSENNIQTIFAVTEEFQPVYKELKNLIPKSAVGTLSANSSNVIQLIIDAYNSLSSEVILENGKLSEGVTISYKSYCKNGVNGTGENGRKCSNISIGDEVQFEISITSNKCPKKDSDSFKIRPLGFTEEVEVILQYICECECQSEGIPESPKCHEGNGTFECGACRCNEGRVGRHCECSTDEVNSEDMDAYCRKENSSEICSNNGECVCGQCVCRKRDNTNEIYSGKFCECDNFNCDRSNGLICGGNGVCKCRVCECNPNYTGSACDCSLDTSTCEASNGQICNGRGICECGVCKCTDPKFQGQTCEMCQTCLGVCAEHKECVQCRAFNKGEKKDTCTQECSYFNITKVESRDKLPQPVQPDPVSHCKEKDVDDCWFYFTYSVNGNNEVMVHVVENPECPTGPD

Turning to `CC(C)C[C@@H]1NC(=O)[C@H]2Cc3ccccc3CN2C(=O)[C@H](Cc2cccc(CNC(=O)CCCCCC(=O)NCc3cccc(C[C@@H]4NC(=O)[C@@H]5CCCN5[C@H](C(=O)NC(C)(C)C)[C@H](C)NC(=O)[C@H]([C@@H](C)O)NC(=O)[C@H](CC(=O)O)NC(=O)[C@H](CC(C)C)NC(=O)[C@H]5Cc6ccccc6CN5C4=O)c3)c2)NC(=O)[C@@H]2CCCN2[C@H](C(=O)NC(C)(C)C)[C@H](C)NC(=O)[C@H]([C@@H](C)O)NC(=O)[C@H](CC(=O)O)NC1=O` [Compound 527], the IC50 turned out to be 1.1 nM in experiment [1], 43 nM in experiment [2] and 126 nM in experiment [3].
For `CC(C)C[C@@H]1NC(=O)c2ccc(-c3ccc(N4CCN(C(=O)CCOCCOCCOCCOCCOCCOCCOCCOCCOCCOCCOCCC(=O)N5CCN(c6ccc(-c7ccc8cc7CNC(=O)[C@@H]7CCCN7[C@H](C(=O)NC(C)(C)C)[C@H](C)NC(=O)[C@H]([C@@H](C)O)NC(=O)[C@H](CC(=O)O)NC(=O)[C@H](CC(C)C)NC8=O)cc6)CC5)CC4)cc3)c(c2)CNC(=O)[C@@H]2CCCN2[C@H](C(=O)NC(C)(C)C)[C@H](C)NC(=O)[C@H]([C@@H](C)O)NC(=O)[C@H](CC(=O)O)NC1=O` [Compound 503], the IC50 in experiment [2] was found to be 45 nM; in experiment [3], 250 nM.
On to `CC(C)C[C@@H]1NC(=O)c2ccc(-c3ccc(N4CCN(C(=O)C[C@H](N)C(=O)N5CCN(c6ccc(-c7ccc8cc7CNC(=O)[C@@H]7CCCN7[C@H](C(=O)NC(C)(C)C)[C@H](C)NC(=O)[C@H]([C@@H](C)O)NC(=O)[C@H](CC(=O)O)NC(=O)[C@H](CC(C)C)NC8=O)cc6)CC5)CC4)cc3)c(c2)CNC(=O)[C@@H]2CCCN2[C@H](C(=O)NC(C)(C)C)[C@H](C)NC(=O)[C@H]([C@@H](C)O)NC(=O)[C@H](CC(=O)O)NC1=O` [Compound 492], for which the IC50 was 25 nM in experiment [2] and 104 nM in experiment [3].
As for `CC(C)C[C@@H]1NC(=O)c2ccc(-c3ccc(N4CCN(C(=O)c5ccccc5C(=O)N5CCN(c6ccc(-c7ccc8cc7CNC(=O)[C@@H]7CCCN7[C@H](C(=O)NC(C)(C)C)[C@H](C)NC(=O)[C@H]([C@@H](C)O)NC(=O)[C@H](CC(=O)O)NC(=O)[C@H](CC(C)C)NC8=O)cc6)CC5)CC4)cc3)c(c2)CNC(=O)[C@@H]2CCCN2[C@H](C(=O)NC(C)(C)C)[C@H](C)NC(=O)[C@H]([C@@H](C)O)NC(=O)[C@H](CC(=O)O)NC1=O` [Compound 512], the IC50 in experiment [2] was 25 nM; in experiment [3], 64 nM.
The matching figures for `CC(C)C[C@@H]1NC(=O)c2ccc(-c3ccc(N4CCN(C(=O)Cc5cccc(CC(=O)N6CCN(c7ccc(-c8ccc9cc8CNC(=O)[C@@H]8CCCN8[C@H](C(=O)NC(C)(C)C)[C@H](C)NC(=O)[C@H]([C@@H](C)O)NC(=O)[C@H](CC(=O)O)NC(=O)[C@H](CC(C)C)NC9=O)cc7)CC6)c5)CC4)cc3)c(c2)CNC(=O)[C@@H]2CCCN2[C@H](C(=O)NC(C)(C)C)[C@H](C)NC(=O)[C@H]([C@@H](C)O)NC(=O)[C@H](CC(=O)O)NC1=O` [Compound 462]: 42 nM and 68 nM.

(Values after US11713338B2, “Cyclic peptides multimers targeting α-4-β-7 integrin” (priority 2016, dated 2023).)
